# Results reported in article PMC5349880, “P-glycoprotein-mediated chemoresistance is reversed by carbonic anhydrase XII inhibitors” (Oncotarget, 2016).
# Counter-ions that a name gives are not always drawn.
# Key:
# Plasma stability (mouse) = format: in vitro ADME; conditions: read-out: mouse plasma stability t1/2 (converted)
# Method: (§1) Plasma stability (mouse) and liver microsome metabolic stability (mouse) were measured by the Biopharmacy Laboratory, Shanghai Institute of Materia Medica, Chinese Academy of Sciences.
# TUBO cells = test: Cell viability (neutral red); format: cell-based, murine; conditions: TUBO cells; compound alone, 5 nM
# HT29/DX cells = test: Cell viability (neutral red); format: cell-based, human; conditions: HT29/DX cells; compound alone, 5 nM
# [1] = Hematochemical parameters of tumor-bearing animals
# Pgp = Pgp ATPase activity on Pgp-rich vesicles; format: cell-based; conditions: for reduction of Pgp ATPase activity: cells grown 24 h with 5 nM compound
# Method: Pancadherin level was used as control of equal protein loading. no Ab: A549/DX sample immunoprecipitated without antibody. […] Data are presented as means ± SD (n = 3).
# The assay was performed on Pgp-enriched membrane vesicles as detailed in [39]. Verapamil (10 μM) was added to the reaction mix to achieve a maximal activation of the Pgp ATPase activity. Results were expressed as nmol hydrolyzed phosphate (Pi)/min/mg proteins, according to the titration curve previously prepared.
# JC cells [2] = test: Cell viability (neutral red); format: cell-based, murine; conditions: JC cells; compound alone, 5 nM
# [3] = Liver microsome metabolic stability (mouse); format: in vitro ADME; conditions: mouse liver microsomes; read-out: mouse liver microsome stability t1/2
# Method: as §1
# [4] = test system: CCD-Co-18 cells, BEAS-2B cells, MCF10A cells, fibroblasts; test: Cell viability (neutral red) of not-transformed cells; format: cell-based, human; conditions: 5 nM, 72 h; no detectable CAXII
# From the text: Supplementary Figure S4: Effects of compounds 1, 2 and 4 on not-transformed cells. (A) Not-transformed human epithelial colon CCD-Co-18 cells, epithelial lung BEAS-2B cells, epithelial breast MCF10A cells, fibroblasts (fibro) were lysed and immunoblotted for CAXII and CAIX. A549/DX cells were used as control of CAXII- and CAIX-positive cells. β-tubulin level was used as control of equal protein loading. The figure is representative of one out of three experiments with similar results. (B) Cells were grown for 72 h in fresh medium (–), or in medium containing 5 nM compounds 1, 2 and 4, then stained with neutral red dye. The absorbance of viable cells was measured spectrophotometrically. Data are presented as means ± SD (n = 4).
# MDA-MB-231 cells = test: Cell viability (neutral red); format: cell-based, human; conditions: MDA-MB-231 cells; compound alone, 5 nM
# SaOS/DX cells = test: Cell viability (neutral red); format: cell-based, human; conditions: SaOS/DX cells; compound alone, 5 nM
# T74D cells = test: Cell viability (neutral red); format: cell-based, human; conditions: T74D cells; compound alone, 5 nM
# A549 cells = test: Cell viability (neutral red); format: cell-based, human; conditions: A549 cells; compound alone, 5 nM
# JC cells [5] = test: In vivo tumor growth, JC breast tumor model; conditions: for reduction in tumor volume at day 18: co-administered with 5 mg/kg doxorubicin i.v.
# Method: Data are presented as means ± SD.
# Tumor growth was measured daily by caliper and calculated according to the equation (L × W^2)/2, where L = tumor length, W = tumor width.
# A549/DX cells = test: Cell viability (neutral red); format: cell-based, human; conditions: A549/DX cells; compound alone, 5 nM
# [6] = test system: ca12 KO HT29/DX, A549/DX, MDA-MB-231 and U2OS/DX cells; test: Intracellular doxorubicin accumulation in ca12 knocked-out cells; format: cell-based, human
# Method: Data are presented as means ± SD (n = 4). […] The absorbance of viable cells was measured spectrophotometrically. Data are presented as means ± SD (n = 4).
# Doxorubicin content was measured fluorimetrically as detailed previously by us. […] Cells were washed twice with PBS, detached with trypsin and sonicated. The intracellular drug content was measured by liquid scintillation. The results were expressed as nmol drug/mg cell proteins, according to titration curves previously set.
# 5 × 10^5 cells were transduced with 1 μg RNA vector (CRISPR pCas guide vector) ca12 or 1 μg not-targeting vector, mixed with 1 μg donor DNA vector (Origene, Rockville, MD), following the manufacturer's instructions. Stable KO cells were selected in complete medium containing 1 μg/ml puromycin for three weeks. Knockout efficacy was evaluated by immunoblotting, as reported above.
# U2OS/DX cells = test: Cell viability (neutral red); format: cell-based, human; conditions: U2OS/DX cells; compound alone, 5 nM
# human CA IX = target: human CA IX; parameters: method as in PMID 21851094, PMID 19827837, PMID 21314129; conditions: recombinant CA, errors ± 5%, three determinations; cited from earlier work
# human CA I = target: human CA I; parameters: method as in PMID 21851094, PMID 19827837, PMID 21314129; conditions: recombinant CA, errors ± 5%, three determinations; cited from earlier work
# human CA XII [7] = target: human CA XII; parameters: method as in PMID 21851094, PMID 19827837, PMID 21314129; conditions: recombinant CA, errors ± 5%, three determinations; cited from earlier work
# human CA II = target: human CA II; parameters: method as in PMID 21851094, PMID 19827837, PMID 21314129; conditions: recombinant CA, errors ± 5%, three determinations; cited from earlier work
# human CA XII [8] = test: CA inhibition, stopped-flow CO2 hydration; format: biochemical; conditions: ratio of Kis
# Method: Saturated CO2 solutions in water at 20°C were used as substrate, while the recombinant CA protein was prepared in Hepes buffer (10 mM, pH 7.5) with added NaClO4 (0.1 M) to maintain a constant the ionic strength. […] The inhibition constants were obtained by nonlinear least-squares methods using PRISM 3. The curve fitting algorithm allowed us to obtain the IC50 values, from which Ki values were calculated by using the Cheng-Prusoff equation.
# [9] = test system: drug-sensitive and drug-resistant cancer cells; test: Cell viability (neutral red), whole panel of cancer cell lines; conditions: read-out: IC50 of tariquidar alone
# [10] = C1 19 ng/kg intratumorally alone
# [11] = C1 1900 ng/kg intratumorally alone
# [12] = dox 5 mg/kg i.v. + C1 19 ng/kg intratumorally
# [13] = dox 5 mg/kg i.v. + C1 1900 ng/kg intratumorally
structure (smiles),measurement,setting,value
NS(=O)(=O)OCCCNS(=O)(=O)[C@@H]1O[C@H](CO)[C@@H](O)[C@H](O)[C@H]1O [Compound 1],half-life,Plasma stability (mouse),42 min
same,reduction in viability for individual compounds,TUBO cells,≤ 28 ± 7%
same,reduction in viability for individual compounds,HT29/DX cells,≤ 31 ± 6%
same,ALT,[1]; [10],38 ± 12 U/l
same,AP,[1]; [10],91 ± 13 U/l
same,AST,[1]; [10],239 ± 72 U/l
same,CPK,[1]; [10],271 ± 84 U/l
same,Creatinine,[1]; [10],0.021 ± 0.011 mg/L
same,LDH,[1]; [10],6723 ± 1023 U/l
same,ALT,[1]; [11],45 ± 7 U/l
same,AP,[1]; [11],83 ± 11 U/l
same,AST,[1]; [11],261 ± 71 U/l
same,CPK,[1]; [11],312 ± 81 U/l
same,Creatinine,[1]; [11],0.033 ± 0.008 mg/L
same,LDH,[1]; [11],6729 ± 835 U/l
same,ALT,[1]; [12],44 ±11 U/l
same,AP,[1]; [12],79 ± 11 U/l
same,AST,[1]; [12],221 ± 71 U/l
same,CPK,[1]; [12],701 ± 129 U/l
same,Creatinine,[1]; [12],0.029 ± 0.011 mg/L
same,LDH,[1]; [12],6091 ± 836 U/l
same,ALT,[1]; [13],33 ± 15 U/l
same,AP,[1]; [13],83 ± 19 U/l
same,AST,[1]; [13],182 ± 44 U/l
same,CPK,[1]; [13],691 ± 103 U/l
same,Creatinine,[1]; [13],0.028 ± 0.008 mg/L
same,LDH,[1]; [13],6241 ± 936 U/l
same,reduction of Pgp ATPase activity,Pgp,≥ 1.47 fold
same,reduction in viability for individual compounds,JC cells [2],≤ 30 ± 10%
same,half-life,[3],135 min
same,cytotoxic effect in not-transformed cells,[4],did not exert any cytotoxic effect
same,reduction in viability for individual compounds,MDA-MB-231 cells,≤ 36 ± 11%
same,reduction in viability for individual compounds,SaOS/DX cells,≤ 32 ± 7%
same,reduction in viability for individual compounds,T74D cells,≤ 33 ± 12%
same,reduction in viability for individual compounds,A549 cells,≤ 28 ± 10%
same,reduction in tumor volume at day 18,JC cells [5]; 19 ng/kg intratumorally,21%
same,reduction in tumor volume at day 18,JC cells [5]; 1900 ng/kg intratumorally,47%
same,effect on tumor growth when used alone,"JC cells [5]; 19 and 1900 ng/kg intratumorally, alone",no effect on tumor growth
same,reduction in viability for individual compounds,A549/DX cells,≤ 38 ± 7%
same,effect on doxorubicin intracellular accumulation,[6],lost the ability to further increase the doxorubicin intracellular accumulation
same,reduction in viability for individual compounds,U2OS/DX cells,≤ 27 ± 8%
NS(=O)(=O)OC[C@H]1OC(O)[C@H](O)[C@@H](O)[C@@H]1O (stereo partly drawn) [Compound 2],reduction in viability for individual compounds,TUBO cells,≤ 28 ± 7%
same,reduction in viability for individual compounds,HT29/DX cells,≤ 31 ± 6%
same,reduction of Pgp ATPase activity,Pgp,≥ 1.47 fold
same,reduction in viability for individual compounds,JC cells [2],≤ 30 ± 10%
same,cytotoxic effect in not-transformed cells,[4],did not exert any cytotoxic effect
same,reduction in viability for individual compounds,MDA-MB-231 cells,≤ 36 ± 11%
same,reduction in viability for individual compounds,SaOS/DX cells,≤ 32 ± 7%
same,Ki,human CA IX,8.6 nM
same,reduction in viability for individual compounds,T74D cells,≤ 33 ± 12%
same,reduction in viability for individual compounds,A549 cells,≤ 28 ± 10%
same,reduction in viability for individual compounds,A549/DX cells,≤ 38 ± 7%
same,effect on doxorubicin intracellular accumulation,[6],lost the ability to further increase the doxorubicin intracellular accumulation
same,reduction in viability for individual compounds,U2OS/DX cells,≤ 27 ± 8%
CCC(=O)OC1O[C@H](COS(N)(=O)=O)[C@@H](OC(=O)CC)[C@H](OC(=O)CC)[C@H]1OC(=O)CC (stereo partly drawn) [Compound 3],Ki,human CA IX,77 nM
NS(=O)(=O)OC[C@H]1OC(O)[C@H](O)[C@@H](O)[C@H]1O (stereo partly drawn) [Compound 4],reduction in viability for individual compounds,TUBO cells,≤ 28 ± 7%
same,reduction in viability for individual compounds,HT29/DX cells,≤ 31 ± 6%
same,reduction of Pgp ATPase activity,Pgp,≥ 1.47 fold
same,reduction in viability for individual compounds,JC cells [2],≤ 30 ± 10%
same,cytotoxic effect in not-transformed cells,[4],did not exert any cytotoxic effect
same,reduction in viability for individual compounds,MDA-MB-231 cells,≤ 36 ± 11%
same,reduction in viability for individual compounds,SaOS/DX cells,≤ 32 ± 7%
same,Ki,human CA IX,62 nM
same,reduction in viability for individual compounds,T74D cells,≤ 33 ± 12%
same,reduction in viability for individual compounds,A549 cells,≤ 28 ± 10%
same,reduction in viability for individual compounds,A549/DX cells,≤ 38 ± 7%
same,effect on doxorubicin intracellular accumulation,[6],lost the ability to further increase the doxorubicin intracellular accumulation
same,reduction in viability for individual compounds,U2OS/DX cells,≤ 27 ± 8%
NS(=O)(=O)c1ccc(CNS(=O)(=O)[C@@H]2O[C@H](CO)[C@@H](O)[C@H](O)[C@H]2O)cc1 [Compound 5],Ki,human CA I,102 nM
same,Ki,human CA XII [7],8.3 nM
same,Ki,human CA II,9.1 nM
NS(=O)(=O)c1ccc(CNS(=O)(=O)[C@@H]2O[C@H](CO)[C@H](O)[C@H](O)[C@H]2O)cc1 [Compound 6],Ki,human CA I,87 nM
same,Ki,human CA XII [7],8.7 nM
same,Ki,human CA II,7.8 nM
NS(=O)(=O)c1ccc(CNS(=O)(=O)[C@@H]2O[C@H](CO)[C@@H](O[C@H]3O[C@H](CO)[C@H](O)[C@H](O)[C@H]3O)[C@H](O)[C@H]2O)cc1 [Compound 7],Ki,human CA IX,106 nM
same,Ki,human CA I,107 nM
same,CAXII Isozyme Selectivity CA I/XII,human CA XII [8],12.0
same,CAXII Isozyme Selectivity CA IX/XII,human CA XII [8],11.9
same,CAXII Isozyme Selectivity CAII/ XII,human CA XII [8],0.6
same,Ki,human CA XII [7],8.9 nM
same,Ki,human CA II,5 nM
NS(=O)(=O)c1ccc(CNS(=O)(=O)[C@@H]2O[C@H](CO)[C@@H](O[C@H]3O[C@H](CO)[C@@H](O)[C@H](O)[C@H]3O)[C@H](O)[C@H]2O)cc1 [Compound 8],Ki,human CA IX,98 nM
same,Ki,human CA I,101 nM
same,CAXII Isozyme Selectivity CA I/XII,human CA XII [8],12.3
same,CAXII Isozyme Selectivity CA IX/XII,human CA XII [8],12.0
same,CAXII Isozyme Selectivity CAII/ XII,human CA XII [8],0.6
same,Ki,human CA XII [7],8.2 nM
same,Ki,human CA II,4.8 nM
"COc1cc2c(cc1OC)CN(CCc1ccc(NC(=O)c3cc(OC)c(OC)cc3NC(=O)c3cnc4ccccc4c3)cc1)CC2 [tariquidar, Tariquidar dihydrochloride, reference compound]",effect on Pgp ATPase activity,Pgp; tariquidar 25 nM added during the assay,strongly decreased ATPase activity
same,IC50,[9],> 10 µM
